Measured values from patent US20240025849A1 (MAX DELBRÜCK-CENTRUM FÜR MOLEKULARE MEDIZIN IN DER …, priority 2020, published 2024).
Entries after “also recorded” stand apart in the source; their conditions may differ.

How the values were obtained:
[1] = system: primary cultured neonatal microglia; assay: Cytokine release (IL1β, IL6, TNFα) ELISA in microglia; format: cell-based, mouse
Method: Primary cultured neonatal microglia. For preparation of cultured neonatal microglia, P0-P3 mice were used. 10 brains were extracted, meninges and cerebellum were removed and put on ice with Hank's balanced salt solution (HBSS). The dissected brains were washed 3 times before adding 400 μL trypsin (0.1 mg/L) and DNAse (5 μg/L) in phosphate buffered saline (PBS). After 2 min of incubation with this solution, the reaction was blocked by adding plain medium. After removal of the medium, 1 mg DNAse was added and the cells were mechanically dissociated, with a Pasteur pipette followed by a glass pipette. The cells were centrifuged for 10 min at 129 g at 4° C. The supernatant was discarded. The pellet was resuspended in plain medium and plated (2.5 brains/flask) in Poly-L-Lysine coated flasks. The cells were washed after 2 days with PBS and incubated for another 7 days in plain medium. Afterwards the medium was replaced by plain medium with 33% L929 conditioned medium. After 2 days, cells were harvested by shaking them for 30 min at 150 rpm. The supernatant was centrifuged for 10 min at 129 g at 4° C. The cells were plated into a 96 well plate (100 000 cells/well, 200 μL medium per well). This procedure could be repeated 2 times with a 2 day interval.
Enzyme-linked immunosorbent assay (ELISA). Cells were seeded according to the protocols described above, after compounds and stimuli were added, the supernatant was collected, centrifuged (500 g, 5 minutes) and stored at −20° C. until analysed. The following kits from Bio-Techne (Minneapolis, USA) were used to detect IL1β, IL6 and TNFα: ELISA Mouse IL-1β/IL-1F2 Duo Set, ELISA Mouse IL-6, ELISA Mouse TNFα. ELISA assays were performed according to the manufacturers protocol.

[2] = system: primary cultured neonatal astrocytes; assay: AlamarBlue assay in astrocytes; format: cell-based; conditions: 2.5 μM C1, 48 hours, unstimulated
Method: (§1) Primary cultured neonatal astrocytes. The preparation of primary cultured neonatal astrocytes followed the preparation of the primary cultured neonatal microglia, described above. After the third shake off, the remaining astrocytes were trypsinated, washed with PBS and seeded into a 96 well plate (10 000 cells/well, 200 μL medium per well).
AlamarBlue assay. Cells were seeded according to the protocols described above, after compounds and stimuli were added, the cells were washed once with HBSS (37° C.) and 100 μl of a 1:10 AlamarBlue (Thermo Fisher Scientific) dilution in plain medium was added. The conversion of resazurin to resorufin was measured by absorbance (absorbance wavelength of 570 nm and a reference wavelength of 600 nm) after 3 hours.
The inventors evaluated the metabolic activity, proliferation and cell death of primary cultured neonatal microglia, primary cultured neonatal astrocytes and the oligodendrocyte cell line OLN-93 under physiological conditions. All cells were treated with 2.5 μM C1 in DMSO or the corresponding DMSO concentration (125×10-5 v/v) for 48 hours without any additional stimulation followed by either an AlamarBlue assay to measure the metabolic activity, or an propidium iodide based proliferation and cell death assay. The data of the AlamarBlue assay and proliferation assay were normalised to the plain medium control. […]

[3] = system: primary cultured neonatal astrocytes; assay: Propidium iodide based proliferation and cell death assay in astrocytes; conditions: 2.5 μM C1, 48 hours, unstimulated
Method: as §1
Propidium iodide based proliferation and cell death assay. To determine the relative proliferation and cell death, the cells were seeded into a […], let adhere for 24 hours and afterwards treated for additional 48 hours. The supernatant was removed, and the cells were washed carefully with 37° C. HBSS once. 1/200 propidium iodide PBS solution was added and the cells were incubated for 10 minutes. The intensity of the propidium iodide signal of the dead cells was measured using a microplate reader. Afterwards, all cells were killed with a 10 min incubation of 10% DMSO and the propidium iodide signal of all cells was measured. All signals were corrected for the background noise, subtracting the blank signal. The percentage of dead cells was calculated by dividing the dead-cell-signal by the all-cell-signal. Proliferation was calculated as a relative value to the plain medium control.

[4] = Intravenous tissue distribution study in mice; format: in vivo, mouse
[5] = system: iNOS; assay: NOS enzyme activity assay (Eurofins), iNOS; format: biochemical; conditions: C1: 1 μM up to 5 μM as printed; 30 min reaction
Method: In mammalians NO is produced by the three isoforms of NOS: iNOS, eNOS, and nNOS. To evaluate the direct influence of cl on the different isoforms of NOS, an enzyme activity assay was conducted by Eurofins. C1 was mixed with the enzyme buffer, which included co-factors and substrates and by adding the enzyme the reaction was initiated. After 30 min the reaction was stopped, and NO concentration was measured. The results are normalised to positive control performed without any additional compounds and are presented as percentage in inhibition. […] To test the compounds effect on iNOS a concentration range from […] 5 μM were applied ([…], 1, 10, 100 nM, 1, and 5 μM), and for testing eNOS and nNOS 1 nM and 1 μM were applied.

[6] = 1 h C1, then 1 μg/ml LPS 48 hours
[7] = unstimulated microglia, 48 hours

## COc1ccc(NC(=O)C(NC(=O)C2CCCN2C(=O)OCc2ccccc2)c2ccc(OC)cc2)cc1 (stereo not shown) [C1]
[1]; 0.025, 0.25, 2.5 μM C1, 1 μg/ml LPS 48 hours
  LPS induced IL1β release: exceeded the LPS-induced release; also recorded: exceeds the stimulated control significantly
[1]; [6]
  LPS induced IL6 release: no effect; also recorded: did not show a reduction
  LPS induced TNFα release: no effect; also recorded: did not show a reduction
[1]; [7]
  IL1β release, C1 alone: did not show any significant changes; also recorded: does not alter
  IL6 release, C1 alone: did not show any significant changes; also recorded: does not alter
  TNFα release, C1 alone: did not show any significant changes; also recorded: does not alter
[2]
  metabolic activity of astrocytes: no influence; also recorded: not affected
[3]
  astrocytes cell death rate: no significant effect
  proliferation of astrocytes: did not show an effect
[4]; 5 mg/kg intravenous
  passage of the blood brain barrier: passes the blood brain barrier
[4]; 30 minutes after 5 mg/kg intravenous
  concentration in brain: 1 μM/g tissue
[4]; 4 hours after 5 mg/kg intravenous
  concentration in brain: 2.4 nM/g tissue
[5]
  enzymatic activity of iNOS: does not interfere
